Assay results taken from ChEMBL document CHEMBL1150706, “Novel chromones from Spathelia sorbifolia” (1987).
≈ marks a conversion by molar mass, not a printed value.

assay: Cytotoxicity against mouse 9PS cells; type: functional; conditions: read-out: ED50 (the source's name)

Row | SMILES | EC50 [µg/mL]
1 | Cc1cc(=O)c2c(O)c3c(c(C(O)C(O)C(C)(C)O)c2o1)OC(C)(C)C=C3 (stereo not drawn) | 0.5 (≈ 1.33 µM)
2 | COc1c(/C=C/C(C)(C)O)c2c(c3oc(C)cc(=O)c13)C=CC(C)(C)O2 | 0.3 (≈ 0.842 µM)
3 | Cc1cc(=O)c2c(O)c3c(c(CC(O)C(C)(C)O)c2o1)OC(C)(C)C=C3 (stereo not drawn) [SPATHELIABISCHROMEN] | 3 (≈ 8.32 µM)
